Several values for one entry are separate records, joined by “and”; a condition that tells them apart may be missing. Equal entries are not always repeated. Each block holds one compound with its values, some of them ahead of it.
Experiments:
SNAT2 = target: T1, SNAT2 (Homo sapiens, UniProt Q96QD8); experiment: FMP assay with betaine in amino acid depleted SKOV3 cells; assay type: cell-based; design: SKOV3 cells were pre-incubated in starvation medium for 15 h to induce SNAT2 expression; endogenous in cells; host or cells: SKOV3 ovarian cancer cells, amino acid depleted for 15 h
T1 sequence (Q96QD8 1-506): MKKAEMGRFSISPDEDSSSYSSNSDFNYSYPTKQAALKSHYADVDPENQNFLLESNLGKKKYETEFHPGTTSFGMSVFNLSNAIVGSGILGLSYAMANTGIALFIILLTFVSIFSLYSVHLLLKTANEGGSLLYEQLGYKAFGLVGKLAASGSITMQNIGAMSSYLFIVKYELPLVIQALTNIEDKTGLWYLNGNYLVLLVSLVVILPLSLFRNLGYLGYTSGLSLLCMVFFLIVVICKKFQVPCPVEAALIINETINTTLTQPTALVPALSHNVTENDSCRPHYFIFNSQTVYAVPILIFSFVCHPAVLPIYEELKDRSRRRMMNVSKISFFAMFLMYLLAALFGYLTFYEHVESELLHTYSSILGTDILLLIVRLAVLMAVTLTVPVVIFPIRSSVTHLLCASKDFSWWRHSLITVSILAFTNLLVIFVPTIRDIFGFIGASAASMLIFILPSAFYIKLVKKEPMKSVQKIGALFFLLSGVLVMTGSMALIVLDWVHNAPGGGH
Method: The FLIPR Membrane Potential Blue Explorer Kit (Molecular Devices) was used to characterise inhibitors and to optimise a high-throughput compound screen. Cells were seeded at approximately 60,000 cells/well on a 96-well plate and allowed to attach and grow overnight in a cell incubator. The next day, the cells were washed once with mHBSS and incubated in a starvation medium (composed of mHBSS with 1% dialysed heat-inactivated FBS, 23 mM NaHCO3, 10 U/ml penicillin and 10 μg/ml streptomycin) for 24 h. Cells were then washed once with mHBSS and incubated with 50 µl of the mHBSS-resuspended FMP assay dye and 50 µl of mHBSS (with or without inhibitors) and incubated at room temperature for 30 min. The plate was then placed in an EnSpire Multimode plate reader (PerkinElmer) and four sequential measurements of fluorescence were recorded as a baseline reference. […] The excitation wavelength was set to 530 nm and the emission was detected at 565 nm. The Δ fluorescent signal reported in the figures was taken 30 s after substrate addition. After the assay was complete, the liquid content of the plate was carefully removed, and the cell monolayer inspected to ensure it remained intact throughout the course of the assay.

B0AT1 (SLC6A19) = target: T2, B0AT1 (SLC6A19) (Homo sapiens, UniProt Q695T7); experiment: Leucine uptake in CHO cells stably expressing human B0AT1 and collectrin; assay type: cell-based; settings: 150 µM leucine, hit compounds at 30 µM, n = 3
T2 construct: expressed in transfected cells
T2 sequence (Q695T7 1-634): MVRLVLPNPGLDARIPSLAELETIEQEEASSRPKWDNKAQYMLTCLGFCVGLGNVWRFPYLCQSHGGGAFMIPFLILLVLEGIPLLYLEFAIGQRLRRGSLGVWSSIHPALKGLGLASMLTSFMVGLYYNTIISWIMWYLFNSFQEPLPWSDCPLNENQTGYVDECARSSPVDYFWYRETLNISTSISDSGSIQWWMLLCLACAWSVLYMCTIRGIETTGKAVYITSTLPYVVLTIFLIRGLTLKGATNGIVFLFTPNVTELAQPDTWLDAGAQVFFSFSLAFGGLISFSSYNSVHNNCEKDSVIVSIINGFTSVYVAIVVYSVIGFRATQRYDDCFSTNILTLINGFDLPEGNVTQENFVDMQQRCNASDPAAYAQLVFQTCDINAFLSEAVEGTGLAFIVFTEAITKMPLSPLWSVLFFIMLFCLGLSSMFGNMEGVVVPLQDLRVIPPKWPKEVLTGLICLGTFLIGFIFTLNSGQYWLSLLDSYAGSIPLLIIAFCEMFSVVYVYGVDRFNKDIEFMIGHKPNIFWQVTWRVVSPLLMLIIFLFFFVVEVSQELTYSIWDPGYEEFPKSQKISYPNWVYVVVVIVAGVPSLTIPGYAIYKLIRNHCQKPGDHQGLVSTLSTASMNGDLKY
T2 sequence (Q9HBJ8 15-222 partner): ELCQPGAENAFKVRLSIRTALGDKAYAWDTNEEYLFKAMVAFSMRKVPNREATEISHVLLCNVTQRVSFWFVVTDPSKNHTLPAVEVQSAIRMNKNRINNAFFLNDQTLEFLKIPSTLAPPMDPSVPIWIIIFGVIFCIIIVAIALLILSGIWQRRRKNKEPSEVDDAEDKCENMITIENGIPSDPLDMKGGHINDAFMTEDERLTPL

Km (SNAT2; SKOV3, 15 h starvation): 4.3 ± 0.4 mM
FMP fluorescence trace (Figure 4E) (SNAT2; concentration 0.03, time 45): 36191 and 39302 and 41186
FMP fluorescence trace (Figure 4E) (SNAT2; concentration 0.03, time 60): 36028 and 39595 and 40874
FMP fluorescence trace (Figure 4E) (SNAT2; concentration 0.03, time 75): 36276 and 39484 and 40680
FMP fluorescence trace (Figure 4E) (SNAT2; concentration 0.03, time 90): 36701 and 39571 and 40731
FMP fluorescence trace (Figure 4E) (SNAT2; concentration 0.03, time 105): 36288
FMP fluorescence trace (Figure 4E) (SNAT2; concentration 0.1, time 45): 39809 and 43033 and 44738
FMP fluorescence trace (Figure 4E) (SNAT2; concentration 0.1, time 60): 40091 and 43354 and 44846
FMP fluorescence trace (Figure 4E) (SNAT2; concentration 0.1, time 75): 40044 and 43600 and 44897
FMP fluorescence trace (Figure 4E) (SNAT2; concentration 0.1, time 90): 40287 and 43518 and 45010
FMP fluorescence trace (Figure 4E) (SNAT2; concentration 0.3, time 45): 39193 and 54954 and 48855
FMP fluorescence trace (Figure 4E) (SNAT2; concentration 0.3, time 60): 39317 and 55361 and 48804
FMP fluorescence trace (Figure 4E) (SNAT2; concentration 0.3, time 75): 39855 and 55442 and 48718
FMP fluorescence trace (Figure 4E) (SNAT2; concentration 0.3, time 90): 39384 and 55296 and 48820
FMP fluorescence trace (Figure 4E) (SNAT2; concentration 0.3, time 105): 39825 and 55517 and 48933
FMP fluorescence trace (Figure 4E) (SNAT2; concentration 1, time 45): 52793 and 67651 and 60777
FMP fluorescence trace (Figure 4E) (SNAT2; concentration 1, time 60): 53223 and 68372 and 61573
FMP fluorescence trace (Figure 4E) (SNAT2; concentration 1, time 75): 53467 and 68816 and 61749
FMP fluorescence trace (Figure 4E) (SNAT2; concentration 1, time 90): 53620 and 69372 and 62182
FMP fluorescence trace (Figure 4E) (SNAT2; concentration 1, time 105): 53487 and 69294 and 62105
FMP fluorescence trace (Figure 4E) (SNAT2; concentration 3, time 45): 69502 and 81716 and 75888
FMP fluorescence trace (Figure 4E) (SNAT2; concentration 3, time 60): 70408 and 83092 and 76997
FMP fluorescence trace (Figure 4E) (SNAT2; concentration 3, time 75): 71034 and 84131 and 77980
FMP fluorescence trace (Figure 4E) (SNAT2; concentration 3, time 90): 71787 and 84660 and 78697
FMP fluorescence trace (Figure 4E) (SNAT2; concentration 3, time 105): 71870 and 85004 and 78476
FMP fluorescence trace (Figure 4E) (SNAT2; concentration 10, time 45): 84051 and 99553 and 93004
FMP fluorescence trace (Figure 4E) (SNAT2; concentration 10, time 60): 86308 and 101988 and 95225
FMP fluorescence trace (Figure 4E) (SNAT2; concentration 10, time 75): 87856 and 103721 and 96631
FMP fluorescence trace (Figure 4E) (SNAT2; concentration 10, time 90): 88823 and 104893 and 97518
FMP fluorescence trace (Figure 4E) (SNAT2; concentration 10, time 105): 89188 and 106421 and 98442
FMP fluorescence trace (Figure 4E) (SNAT2; concentration 30, time 45): 86227 and 101310 and 96479
FMP fluorescence trace (Figure 4E) (SNAT2; concentration 30, time 60): 89361 and 105122 and 98804
FMP fluorescence trace (Figure 4E) (SNAT2; concentration 30, time 75): 91535 and 107806 and 101327
FMP fluorescence trace (Figure 4E) (SNAT2; concentration 30, time 90): 92748 and 109815 and 102783
FMP fluorescence trace (Figure 4E) (SNAT2; concentration 30, time 105): 93673 and 111181 and 103799
Compound: C[N+](C)(C)CC(=O)O [Betaine, betaine]

Leucine uptake, Mean (B0AT1 (SLC6A19)): 55.2874 nmol / mg protein x 6 min
Compound: Cc1ccc(S(=O)(=O)N(C)c2ccsc2C(=O)NCc2ccccc2C(F)(F)F)cc1 [Compound 57_E, 3-(N-methyl (4-methylphenyl)sulfonamido)-N-(2-trifluoromethylbenzyl)thiophene-2-carboxamide]
